Measurements: patent US20230105108A1, “COMPOUNDS FOR THE TREATMENT OF BACTERIAL INFECTIONS AND POTENTIATION OF ANTIBIOTICS” (GEORGIA STATE UNIVERSITY RESEARCH FOUNDATION, INC., priority 2019, published 2023)
Counter-ions that a name gives are not always drawn. Like-named read-outs stand apart in the source and are kept apart here.

How the values were obtained:
Assay type in all cases: cell-based
[1] = Cytotoxicity in H9c2 cells (CCK-8); conditions: rat, H9c2 cells; H9c2 cell line
Description: The cytotoxicity in H9c2 (ATCC®CRL-1446™) cells was also determined. The H9c2 cells were maintained in DMEM (Dulbecco's Modified Eagle's Medium) supplemented with 10% fetal bovine serum (MidSci; S01520HI) and 1% penicillin-streptomycin (Sigma-Aldrich; P4333) at 37° C. with 5% CO2. The H9c2 cells were seeded in 96-well plate one day before the experiment. Different concentrations of di-amidine compounds were added into the H9c2 cells. The cells were then incubated with the compounds for 24 hours at 37° C. with 5% CO2. The cell viability was tested by the CCK-8. Specifically, after 24 hour incubation, 10 μL CCK-8 was added to each well. After 3 hours incubation at 37° C., the absorbance at 450 nm was recorded by a plate reader.

E. coli (ATCC 25922) = assay: MIC determination, sensitization fold and FIC index on E. coli; conditions: for Sensitization: compound up to 25 μM; for MIC: Escherichia coli; for MIC of AB with MD-124: MD-124 concentration 5 μg/ml
Description: Bacteria culture and MICs determination: Gram-negative bacteria were cultured in Mueller Hinton II cation-adjusted broth. Gram-positive bacteria were cultured in LB broth. Mycobacterium smegmatis was cultured in Middlebrook 7H9 Broth. MICs of antibiotics itself were determined by performing two-fold serial dilutions of antibiotics. MICs of antibiotics in the presence of bacterial sensitizers were determined by performing two-fold serial dilutions of antibiotics with or without a constant concentration of bacterial sensitizers. The MICs tests were performed on 96-well plates with a final volume of 200 μl Mueller Hinton II cation-adjusted broth in each well. Each well was inoculated with 5×10^5 CFU/ml bacteria and was incubated for 24 h at 37° C. with continuous shaking of 200 rpm. The bacterial density was then determined by OD600. Bacterial growth %=OD600 of antibiotic treatment group/OD600 of antibiotic non-treatment group. MICs was determined as the concentrations that inhibit more than 90% of bacteria growth.
Sensitization fold determination and FIC index calculations: Sensitization fold=MIC of antibiotic only/MIC of antibiotic with bacterial sensitizer. […] Since the MICs were determined by performing two-fold serial dilutions of antibiotic, so the sensitization fold can is the times of 2.
FIC index between compound a and b was calculated according to the formula below: […]
FIC≤0.5: Synergy; FIC between 0.5 and 1: Additive; FIC between 1 and […]: no interaction; FIC >4: antagonism.
Bacteria strains (as indicated in Table 5B) were cultured with rifampicin at various concentrations in the presence or absence of 10 μM of the indicated compound for 20 h at 37° C. The MIC, sensitization, cytotoxicity, and MIC on mycobacteria were tested according to methods described herein. […] The sensitization activities of compounds on MRSA were tested using rifampicin. The sensitization activities of compounds on E. coli were tested using rifampicin.

B. subtilis = assay: MIC determination and sensitization fold on B. subtilis; conditions: for Sensitization fold: erythromycin; for MIC: Bacillus subtilis, 24 h, compound alone, read-out: MIC; for sensitization fold with 5.5 μg/ml DB2560: B. subtilis towards the antibiotic
[2] = ATCC25922, 24 h, E. coli, compound alone, read-out: MIC
[3] = E. coli towards the antibiotic, MD-124 5 μg/ml
[4] = ATCC25922, 24 h, E. coli (wild type), antibiotic alone, read-out: MIC of AB only
[5] = E. coli, rifampicin, compound at 10 μM

Q: Which results are given for COc1cc(C2=NCCN2)ccc1OCc1cccc(COc2ccc(C3=NCCN3)cc2OC)c1F [DB2555, dihydrochloride]?
A: CC50 at 24 h [1]: 50 µM; Sensitization (E. coli (ATCC 25922); E. coli, rifampicin): No effect up to 25 μM; MIC (E. coli (ATCC 25922); [2]): > 50 µM

Q: With Cc1cc(-c2nc3cc(C(=N)N)ccc3n2C)sc1-c1ccc(OCCCCOc2ccc(C(=N)N)cc2)cc1 [DB2583] as the compound, how does the Sensitization fold (B. subtilis; B. subtilis, compound at 12 μM) read?
A: 16-fold at 12 μM

Q: What about the MIC (B. subtilis; B. subtilis) of the same compound?
A: 25 µM

Q: And the CC50 at 24 h [1]?
A: 12.5 µM

Q: What about the Sensitization (E. coli (ATCC 25922); E. coli, rifampicin) of the same compound?
A: No effect up to 25 μM

Q: And the MIC (E. coli (ATCC 25922); [2])?
A: 100 µM

Q: Which “MIC of erythromycin in the absence of DB2560” value (B. subtilis; B. subtilis) does the source give for CC[C@H]1OC(=O)[C@H](C)[C@@H](O[C@H]2C[C@@](C)(OC)[C@@H](O)[C@H](C)O2)[C@H](C)[C@@H](O[C@@H]2O[C@H](C)C[C@H](N(C)C)[C@H]2O)[C@](C)(O)C[C@@H](C)C(=O)[C@H](C)[C@@H](O)[C@]1(C)O [Erythromycin, reference compound] here?
A: 0.05 ng/mL

Q: What about the “MIC of erythromycin in the presence of DB2560” value (B. subtilis; B. subtilis) of the same compound?
A: 0.0015 ng/mL

Q: And the “MIC of AB with MD-124” value (E. coli (ATCC 25922); E. coli)?
A: 400 ng/mL

Q: What about the MIC (E. coli (ATCC 25922); ATCC25922, read-out: MIC of erythromycin in the presence of 10 μg/ml MD-100, wild-type E. coli) of the same compound?
A: 1600 ng/mL

Q: Which Sensitization fold (E. coli (ATCC 25922); [3]) does the source give for C[C@H]1COc2c(N3CCN(C)CC3)c(F)cc3c(=O)c(C(=O)O)cn1c23 [Levofloxacin, reference compound] here?
A: 8 fold

Q: And the “MIC of AB with MD-124” value (E. coli (ATCC 25922); E. coli)?
A: 6.2 ng/mL

Q: What about the MIC (E. coli (ATCC 25922); [4]) of the same compound?
A: 50 ng/mL

Q: Which results are given for Cc1ccc(COc2ccc(C(=N)N)cc2)cc1COc1ccc(C(=N)N)cc1 [MD-119, 1,3-Bis {(4-amidino)-phenoxymethyl}-6-methylbenzene dihydrochloride]?
A: Sensitization fold (B. subtilis; B. subtilis, compound at 6 μM): 16-fold at 6 μM; Sensitization fold (B. subtilis; B. subtilis, compound at 12 μM): 32-fold at 12 μM,; MIC (B. subtilis; B. subtilis): 25 µM; Sensitization fold (E. coli (ATCC 25922); E. coli, rifampicin, compound at 12.5 μM): 4-fold at 12.5 μM.; Sensitization fold (E. coli (ATCC 25922); E. coli, rifampicin, compound at 25 μM): 32-fold at 25 μM,; MIC (E. coli (ATCC 25922); ATCC25922, 24 h): 100 µM

Q: Which Sensitization fold (E. coli (ATCC 25922); [5]) does the source give for N=C(N)c1ccc(COc2cc(OCc3ccc(C(=N)N)cc3F)cc(C(F)(F)F)c2)c(F)c1 [MD-127, dihydrochloride] here?
A: 516-fold at 10 μM

Q: And the MIC (E. coli (ATCC 25922); [2])?
A: 100 µM

Q: For N=C(N)c1ccc(CCc2cc(CCc3ccc(C(=N)N)cc3)cc(C(F)(F)F)c2)cc1 [MD-128, 1,3-Bis {(4-amidino)-phenethyl}-5-trifluoromethylbenzene dihydrochloride], which Sensitization fold (E. coli (ATCC 25922); [5]) is on record?
A: 516-fold at 10 μM

Q: What about the MIC (E. coli (ATCC 25922); ATCC25922, 24 h) of the same compound?
A: 100 µM

Q: Which Sensitization fold (E. coli (ATCC 25922); [3]) does the source give for COc1c(N2C[C@@H]3CCCN[C@@H]3C2)c(F)cc2c(=O)c(C(=O)O)cn(C3CC3)c12 [Moxifloxacin, reference compound] here?
A: 8 fold

Q: What about the “MIC of AB with MD-124” value (E. coli (ATCC 25922); E. coli) of the same compound?
A: 6.2 ng/mL

Q: What about the MIC (E. coli (ATCC 25922); [4]) of the same compound?
A: 50 ng/mL

Q: Which Sensitization fold (E. coli (ATCC 25922); [3]) does the source give for CO[C@H]1/C=C/O[C@@]2(C)Oc3c(C)c(O)c4c(O)c(c(/C=N/N5CCN(C6CCCC6)CC5)c(O)c4c3C2=O)NC(=O)/C(C)=C\C=C\[C@H](C)[C@H](O)[C@@H](C)[C@@H](O)[C@@H](C)[C@H](OC(C)=O)[C@@H]1C [Rifapentine, reference compound] here?
A: 32 fold

Q: What about the “MIC of AB with MD-124” value (E. coli (ATCC 25922); E. coli) of the same compound?
A: 800 ng/mL

Q: What about the MIC (E. coli (ATCC 25922); [4]) of the same compound?
A: 25000 ng/mL

Q: Which results are given for CO[C@H]1/C=C/O[C@@]2(C)Oc3c(C)c(O)c4c(O)c(c5c(nc6cc(C)ccn65)c4c3C2=O)NC(=O)/C(C)=C\C=C\[C@H](C)[C@H](O)[C@@H](C)[C@@H](O)[C@@H](C)[C@H](OC(C)=O)[C@@H]1C [Rifaximin, reference compound]?
A: Sensitization fold (E. coli (ATCC 25922); [3]): 64 fold; MIC of AB with MD-124 (E. coli (ATCC 25922); E. coli): 200 ng/mL; MIC (E. coli (ATCC 25922); [4]): 12500 ng/mL

Q: With C[C@@H](O)[C@H]1C(=O)N2C(C(=O)O)=C(S[C@@H]3CN[C@H](C(=O)Nc4cccc(C(=O)O)c4)C3)[C@H](C)[C@H]12 [entrapenem, reference compound] as the compound, how does the “sensitization fold with 5.5 μg/ml DB2560” value (B. subtilis) read?
A: 4 fold

Q: With COc1cccc(OC)c1C(=O)N[C@@H]1C(=O)N2[C@@H]1SC(C)(C)[C@@H]2C(=O)O [methicillin, reference compound] as the compound, how does the “sensitization fold with 5.5 μg/ml DB2560” value (B. subtilis) read?
A: 4 fold

Q: Which Sensitization fold (E. coli (ATCC 25922); E. coli, rifampicin, 20 μg/ml bacterial sensitizer) does the source give for “polymyxin B nonapeptide [PMBN, reference compound]” here?
A: 16 fold
